Where two headings read alike, the source gives them in different places.
Assays:
hNav1.7 = hNav1.7 (Homo sapiens (Human), UniProt Q15858); experiment: Electrophysiology (EP) assay, whole-cell patch clamp in hNav1.7 expressing HEK-293 cells; format: cell-based; settings: affinity for inactivated state of hNav1.7, HEK-293; read-out: Nav1.7 Activity (μM) EP assay Ki
Protocol: Cells Manual Electrophysiology: The hNav1.7 expressing HEK-293 cells are plated on 35 mm culture dishes pre-coated with poly-D-lysine in standard DMEM culture media (Mediatech, Inc., Herndon, Va.) and incubated in a 5% CO2 incubator at 37° C. Cultured cells are used approximately 12-48 hours after plating.
Cells Automated Electrophysiology: The hNav1.7 expressing HEK-293 cells are plated on tissue culture flasks in standard DMEM culture media (Mediatech, Inc.) and incubated in a 5% CO2 incubator at 37° C. Cultured cells are used approximately 12-48 hours after plating.
Manual Electrophysiology: On the day of experimentation, the 35 mm dish is placed on the stage of an inverted microscope equipped with a perfusion system that continuously perfuses the culture dish with fresh recording media. A gravity driven superfusion system is used to apply test solutions directly to the cell under evaluation. This “shooter” system consists of an array of glass pipettes connected to a motorized horizontal translator. The outlet of the shooter is positioned approximately 100 μm from the cell of interest.
Whole cell currents are recorded using the whole-cell patch clamp configuration using an Axopatch 200B amplifier (Axon Instruments, Foster City, Calif.), 1322A A/D converter (Axon Instruments) and pClamp software (v. 8; Axon Instruments) and stored on a personal computer. Gigaseals are formed and the whole-cell configuration is established in voltage clamp mode, and membrane currents generated by hNav1.7 channels are recorded. Borosilicate glass pipettes with resistance values between 1.5 and 2.0 MΩ when filled with pipette solution are used and series resistance (<5 MΩ) is compensated by 75-80%. Signals are sampled at 50 kHz and low pass filtered at 3 kHz.
Automated Electrophysiology: On the day of experimentation, cells are prepared by removing media and digesting with appropriate enzymes to suspend cells in external solution.
Whole cell currents are recorded using the whole-cell patch clamp configuration using an Patchliner (Nanion Technologies, Munich Germany), EPC 10 quadro amplifiers (HEKA, Bellmore, N.Y.) and PatchControl HT 10905 (Nanion Technologies) and PatchMaster v2x73 software (HEKA) and stored on a personal computer. Gigaseals are formed and the whole-cell configuration is established in voltage clamp mode, and membrane currents generated by hNav1.7 are recorded. NPC-16 chips have resistance values between 1.0 and 2.0 MΩ when filled with pipette solution and series resistance (<5 MΩ). Signals are sampled at 25 kHz and low pass filtered at 3 kHz.
Voltage protocols Manual Electrophysiology: After establishing the whole-cell configuration in voltage clamp mode, voltage protocols are run to establish the 1) test potential (Vmax), 2) holding potential (Vh), and 3) the conditioning potential for each cell.
After establishing the whole-cell configuration in voltage clamp mode, a standard I-V protocol is run to determine the potential at which the maximal current (Imax) is elicited. This potential is the test potential (Vt). To determine a conditioning potential at which 100% of channels are in the inactivated state, a standard steady-state inactivation (SSIN) protocol is run using a series of fifteen 100 ms-long depolarizing prepulses, incrementing in 10 mV steps, immediately followed by a 5 ms testing pulse to Vmax. This protocol also permits determination of the holding potential at which all channels are in the resting state.
For compounds causing significant retardation of recovery from inactivation, an estimate of the affinity for the inactivated state of the channel (Ki) is generated using the following protocol. From the negative, no residual inactivation, holding potential, the cell is depolarized to the conditioning voltage for 2-5 seconds, returned to the negative holding potential for 10-20 ms to relieve fast inactivation and then depolarized to the test potential for ˜15 ms. […]

human Nav1.7 = human Nav1.7 (Homo sapiens (Human), UniProt Q15858); experiment: FLIPR or FLIPR TETRA sodium dye assay with KCl and test article pre-incubation; format: cell-based
Chain of human Nav1.7 (Q15858 other isoform, or with tags, fused parts or gaps): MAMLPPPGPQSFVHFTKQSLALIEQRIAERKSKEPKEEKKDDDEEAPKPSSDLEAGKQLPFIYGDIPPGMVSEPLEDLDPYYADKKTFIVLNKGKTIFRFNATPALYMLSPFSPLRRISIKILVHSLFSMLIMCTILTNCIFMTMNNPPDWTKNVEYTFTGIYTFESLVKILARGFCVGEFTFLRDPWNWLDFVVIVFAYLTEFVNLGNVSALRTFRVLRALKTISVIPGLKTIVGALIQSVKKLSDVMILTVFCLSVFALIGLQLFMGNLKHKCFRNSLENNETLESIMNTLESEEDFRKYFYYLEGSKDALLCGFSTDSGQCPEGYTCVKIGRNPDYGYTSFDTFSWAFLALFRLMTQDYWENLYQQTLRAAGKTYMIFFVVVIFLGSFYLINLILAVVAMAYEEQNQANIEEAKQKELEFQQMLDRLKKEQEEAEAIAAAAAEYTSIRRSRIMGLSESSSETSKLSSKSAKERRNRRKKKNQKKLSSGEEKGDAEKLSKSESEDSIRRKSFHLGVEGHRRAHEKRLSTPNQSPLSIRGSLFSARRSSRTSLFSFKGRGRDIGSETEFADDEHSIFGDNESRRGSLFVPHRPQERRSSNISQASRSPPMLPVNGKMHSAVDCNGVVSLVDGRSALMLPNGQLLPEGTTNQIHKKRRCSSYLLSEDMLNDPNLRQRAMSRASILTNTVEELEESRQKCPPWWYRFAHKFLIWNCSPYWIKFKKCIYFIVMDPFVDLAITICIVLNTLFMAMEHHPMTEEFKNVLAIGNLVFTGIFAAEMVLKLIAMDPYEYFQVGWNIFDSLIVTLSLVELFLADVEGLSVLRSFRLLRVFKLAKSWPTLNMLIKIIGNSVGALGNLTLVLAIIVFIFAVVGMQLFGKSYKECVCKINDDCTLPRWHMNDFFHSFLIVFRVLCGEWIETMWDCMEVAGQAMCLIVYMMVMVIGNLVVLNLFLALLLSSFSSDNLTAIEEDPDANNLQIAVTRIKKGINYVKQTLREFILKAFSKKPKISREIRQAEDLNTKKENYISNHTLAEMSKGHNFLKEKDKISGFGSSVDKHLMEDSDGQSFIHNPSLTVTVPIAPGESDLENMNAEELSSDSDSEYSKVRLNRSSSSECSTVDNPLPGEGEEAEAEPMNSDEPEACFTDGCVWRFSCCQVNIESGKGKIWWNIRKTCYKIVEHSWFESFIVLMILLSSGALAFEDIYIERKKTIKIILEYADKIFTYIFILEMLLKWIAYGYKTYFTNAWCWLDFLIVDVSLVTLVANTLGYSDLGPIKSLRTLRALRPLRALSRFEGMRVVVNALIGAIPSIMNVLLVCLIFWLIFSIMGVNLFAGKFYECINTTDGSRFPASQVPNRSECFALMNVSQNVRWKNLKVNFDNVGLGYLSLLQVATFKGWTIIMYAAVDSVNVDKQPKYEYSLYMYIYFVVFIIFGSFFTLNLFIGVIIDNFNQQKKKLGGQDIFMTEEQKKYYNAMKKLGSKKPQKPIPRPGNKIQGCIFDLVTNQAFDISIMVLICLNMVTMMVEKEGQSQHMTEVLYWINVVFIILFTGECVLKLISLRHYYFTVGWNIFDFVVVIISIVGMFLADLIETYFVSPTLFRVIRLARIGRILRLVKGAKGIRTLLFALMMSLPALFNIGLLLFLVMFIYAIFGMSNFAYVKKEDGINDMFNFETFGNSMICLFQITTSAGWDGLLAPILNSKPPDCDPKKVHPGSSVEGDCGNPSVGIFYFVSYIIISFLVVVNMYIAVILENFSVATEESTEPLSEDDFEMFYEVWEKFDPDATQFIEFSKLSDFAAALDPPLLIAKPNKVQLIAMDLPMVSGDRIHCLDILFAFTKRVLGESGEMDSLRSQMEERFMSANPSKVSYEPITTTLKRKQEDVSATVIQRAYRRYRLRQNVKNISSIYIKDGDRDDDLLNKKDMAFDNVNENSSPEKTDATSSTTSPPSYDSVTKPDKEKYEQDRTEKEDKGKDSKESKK

[1] = recombinant human Nav1.7 in HEK293, veratridine + scorpion venom

Chain of hNav1.7 (Q15858 other isoform, or with tags, fused parts or gaps): as above

| SMILES | Ki (hNav1.7) [µM] | IC50 (human Nav1.7; [1]) [µM] | IC50 (human Nav1.7) [µM] |
| --- | --- | --- | --- |
| NC(=O)c1cc(CN[C@@H]2CCNC2=O)nc(C2=CCC(Oc3ccc(C(F)(F)F)cc3)CC2)n1 (stereo partly drawn) [Compound 56, 6-((((R)-2-oxopyrrolidin-3-yl)amino)methyl)-2-(4-(4-(trifluoromethyl)phenoxy)cyclohex-1-en-1-yl)pyrimidine-4-carboxamide] | 0.117 ± 0.01 | 0.544 ± 0.062 | – |
| NC(=O)c1cc(CN2CCNC(=O)C2)nc(C2=CCC(Oc3ccc(C(F)(F)F)cc3)CC2)n1 (stereo not drawn) [Compound 59, 6-((3-oxopiperazin-1-yl)-methyl)-2-(4-(4-(trifluoro-methyl)phenoxy)cyclohex-1-en-1-yl)pyrimidine-4-carboxamide] | 0.059 ± 0.018 | – | 0.07 ± 0.003 |
| NC(=O)c1cc(CN[C@H]2CCNC2=O)nc(-c2ccc(Oc3ccc(C(F)(F)F)cn3)cc2)n1 [Compound 26, (S)-6-(((2-oxopyrrolidin-3-yl)amino)methyl)-2-(4-((5-(trifluoromethyl)pyridin-2-yl)oxy)phenyl)pyrimidine-4-carboxamide] | 0.662 ± 0.13 | 1.75 ± 0.6 | – |
| NC(=O)c1cc(CN[C@H]2CCNC2=O)nc(-c2ccc(Oc3ccc(C(F)(F)F)cc3)cc2)n1 [Compound 20, (S)-6-(((2-oxopyrrolidin-3-yl)amino)methyl)-2-(4-(4-(trifluoromethyl)phenoxy)phenyl)pyrimidine-4-carboxamide] | – | 0.439 ± 0.023 | – |
| NC(=O)c1cc(CN[C@@H](CO)C(N)=O)nc(-c2ccc(Oc3ccc(C(F)(F)F)cc3)cc2)n1 [Compound 23, (S)-6-(((1-amino-3-hydroxy-1-oxopropan-2-yl)amino)methyl)-2-(4-(4-(trifluoromethyl)-phenoxy)phenyl)pyrimidine-4-carboxamide] | 0.145 ± 0.044 | 0.2 ± 0.045 | – |
| C[C@H](NCc1cc(C(N)=O)nc(C2=CCC(Oc3ccc(C(F)(F)F)cc3)CC2)n1)C(N)=O (stereo partly drawn) [Compound 57] | 0.175 ± 0.039 | 0.557 ± 0.049 | – |
| CC1(C)C(=O)NCCN1Cc1cc(C(N)=O)nc(-c2ccc(Oc3ccc(C(F)(F)F)cc3)cc2)n1 [Compound 61, 6-((2,2-dimethyl-3-oxopiperazin-1-yl)methyl)-2-(4-(4-(trifluoromethyl)phenoxy)-phenyl) pyrimidine-4-carboxamide] | – | – | 0.627 ± 0.022 |
| CC1(C)C(=O)NCCN1Cc1cc(C(N)=O)nc(-c2ccc(Oc3ccc(C(F)(F)F)cn3)cc2)n1 [Compound 60, 6-((2,2-dimethyl-3-oxopiperazin-1-yl)methyl)-2-(4-((5-(trifluoromethyl)pyridin-2-yl)oxy)phenyl)pyrimidine-4-carboxamide] | – | > 20 | – |
| NC(=O)c1cc(CN2CCC[C@H]2C(N)=O)nc(-c2ccc(Oc3ccc(C(F)(F)F)cc3)cc2)n1 [Compound 16, (S)-6-((2-carbamoylpyrrolidin-1-yl)methyl)-2-(4-(4-(trifluoro-methyl)phenoxy)phenyl)pyrimidine-4-carboxamide] | – | 0.085 ± 0.012 | – |
| C[C@H](NCc1cc(C(N)=O)nc(-c2ccc(Oc3ccc(C(F)(F)F)cc3)cc2)n1)C(N)=O [Compound 21, (S)-6-(((1-amino-1-oxopropan-2-yl)amino)methyl)-2-(4-(4-(trifluoromethyl)phenoxy)phenyl)pyrimidine-4-carboxamide] | – | 0.042 ± 0.006 | – |
| NC(=O)c1cc(CN2C[C@H](O)C[C@H]2C(N)=O)nc(-c2ccc(Oc3ccc(C(F)(F)F)cc3)cc2)n1 [Compound 24, 6-(((2S, 4R)-2-carbamoyl-4-hydroxypyrrolidin-1-yl)methyl)-2-(4-(4-(trifluoromethyl)-phenoxy)phenyl)pyrimidine-4-carboxamide] | 0.342 ± 0.095 | 0.583 ± 0.056 | – |
| CC(C)[C@H](NCc1cc(C(N)=O)nc(-c2ccc(Oc3ccc(C(F)(F)F)cc3)cc2)n1)C(N)=O [Compound 22, (S)-6-(((1-amino-3-methyl-1-oxobutan-2-yl)amino)methyl)-2-(4-(4-(trifluoromethyl)-phenoxy)phenyl)pyrimidine-4-carboxamide] | 0.22 ± 0.034 | 0.2 ± 0.045 | – |
| NC(=O)c1cc(CN2CCNC(=O)C2)nc(-c2ccc(Oc3ccc(C(F)(F)F)cc3)cc2)n1 [Compound 27, 6-((3-oxopiperazin-1-yl)-methyl)-2-(4-(4-(trifluoro-methyl)phenoxy)phenyl)pyrimidine-4-carboxamide] | 0.08 ± 0.027 | 0.072 ± 0.008 | – |
| NC(=O)c1cc(CN[C@H]2CCNC2=O)nc(-c2ccc(Oc3ccc(Cl)cc3F)cc2)n1 [Compound 15] | 0.041 ± 0.006 | 0.065 ± 0.01 | – |
| NC(=O)c1cc(CN2CC[C@@H](O)[C@H]2C(N)=O)nc(-c2ccc(Oc3ccc(C(F)(F)F)cc3)cc2)n1 [Compound 65, 6-(((2S,3R)-2-carbamoyl-3-hydroxypyrrolidin-1-yl)methyl)-2-(4-(4-(trifluoromethyl)-phenoxy)phenyl)pyrimidine-4-carboxamide] | 0.046 ± 0.009 | 0.094 ± 0.008 | – |
| NC(=O)c1cc(CO)nc(C2=CCC(Oc3ccc(C(F)(F)F)cc3)CC2)n1 (stereo not drawn) [Compound 54, 6-(hydroxymethyl)-2-(4-(4-(trifluoromethyl)phenoxy)cyclohex-1-en-1-yl)pyrimidine-4-carboxamide] | – | 0.242 ± 0.023 | – |
| O=C1NCC[C@@H]1NCc1cc([C@H](O)CO)nc(-c2ccc(Oc3ccc(OC(F)(F)F)cc3)cc2)n1 [Compound 40, (S)-3-(((6-((S)-1,2-dihydroxyethyl)-2-(4-(4-(trifluoromethoxy)phenoxy)phenyl)pyrimidin-4-yl)methyl)-amino)pyrrolidin-2-one] | 2.68 ± 0.206 | 1.55 ± 0.215 | – |
| NC(=O)c1cc(CN[C@H]2CCNC2=O)nc(-c2ccc(Oc3ccc(C4CC4)cn3)cc2)n1 [Compound 14, (S)-2-(4-((5-cyclopropylpyridin-2-yl)oxy)phenyl)-6-(((2-oxopyrrolidin-3-yl)amino)-methyl)pyrimidine-4-carboxamide] | 1.41 ± 0.231 | 3.39 ± 1.15 | – |
| NC(=O)c1cc(CN2CCNC(=O)C2)nc(-c2ccc(Oc3ccc(C(F)(F)F)cn3)cc2)n1 [Compound 28, 6-((3-oxopiperazin-1-yl)-methyl)-2-(4-((5-(trifluoro-methyl)pyridin-2-yl)oxy)-phenyl)pyrimidine-4-carboxamide] | – | – | 2.45 ± 0.133 |
| O=C1CN(Cc2cc([C@H](O)CO)nc(-c3ccc(Oc4ccc(OC(F)(F)F)cc4)cc3)n2)CCN1 [Compound 41, (S)-4-((6-(1,2-dihydroxyethyl)-2-(4-(4-(trifluoromethoxy)-phenoxy)phenyl)pyrimidin-4-yl)methyl)piperazin-2-one] | 0.875 ± 0.167 | – | 1.19 ± 0.11 |
| NC(=O)c1cc(CN[C@@H](CO)C(N)=O)nc(C2=CCC(Oc3ccc(C(F)(F)F)cc3)CC2)n1 (stereo partly drawn) [Compound 58, 6-((((S)-1-amino-3-hydroxy-1-oxopropan-2-yl)amino)-methyl)-2-(4-(4-(trifluoromethyl)-phenoxy)cyclohex-1-en-1-yl)pyrimidine-4-carboxamide] | 0.524 ± 0.161 | 1.47 ± 0.091 | – |
| NC(=O)c1cc(CN2CC(=O)NC(=O)C2)nc(-c2ccc(Oc3ccc(C(F)(F)F)cc3)cc2)n1 [Compound 62, 6-((3,5-dioxopiperazin-1-yl)methyl)-2-(4-(4-(trifluoro-methyl)phenoxy)phenyl)pyrimidine-4-carboxamide] | – | 0.205 ± 0.006 | – |

Source: US9745287B2, “Pyrimidines and use thereof” (Purdue Pharma L.P., priority 2013, dated 2017)
